From PubChem BioAssay AID1996
≈ marks a conversion by molar mass, not a printed value.

conditions: buffer; pH 7.4; 200.0 µM

| Structure (SMILES) | solubility kinetic [µg/mL] |
| --- | --- |
| Cc1ccc(S(=O)(=O)CC(=O)Nc2cccc(C)n2)cc1 | 11.5 (≈ 37.8 µM) |
| O=c1oc2ccccc2c(Nc2ccc(Cl)cc2)c1[N+](=O)[O-] | 0.9 (≈ 2.84 µM) |
| CCO/C=C1/C(=O)N(c2ccc(OC)cc2)C(=O)c2ccccc21 | > 48.5 |
| O=C1NC(=Nc2cccnc2)S/C1=C\c1cccc(F)c1 | 3.2 (≈ 10.7 µM) |
| CCc1cn(C2CC(O)C(CO)O2)c(=O)[nH]c1=O (centres undefined) | > 38.4 |
| S=C(NCc1ccccc1)Nc1nccs1 | 3 (≈ 12 µM) |
| Cc1ccc(CSCC(=O)Nc2ccccc2)cc1 | 33.4 (≈ 123 µM) |
| CCNS(=O)(=O)c1ccc(NC(=O)Nc2ccc3c(c2)OCO3)cc1 | 12.1 (≈ 33.3 µM) |
| COc1cccc(OC)c1C(=O)OCC(=O)NCC(C)C | > 44.3 |
| O=C(Cc1cccs1)NCc1cccc(C(F)(F)F)c1 | 42.1 (≈ 141 µM) |
| O/N=C\c1cccn1-c1nccs1 | > 29 |
| COc1ccc(/C=C/C(=O)OCC(=O)NCc2ccccc2Cl)cc1OC | 8.3 (≈ 21.3 µM) |
| C=CCn1c(SCC(C)=O)nnc1-c1ccc2ncccc2c1 | > 48.7 |
| CCCc1cc(=O)[nH]c(SCC(=O)Nc2ccc(OC)c(S(=O)(=O)N3CCCCC3)c2)n1 | 13.8 (≈ 28.7 µM) |
| CCOc1ccccc1NC(=O)NCc1ccco1 | 9.8 (≈ 37.6 µM) |
| Cn1ncc(Cl)c1C(=O)N1CCC2(CC1)OCCO2 | > 42.9 |
| CCCN1CNC(=S)N(c2ccc(C)cc2C)C1 | > 39.5 |
| O=C(CN1CCCc2ccccc21)NCCc1ccc(Cl)cc1 | 19.3 (≈ 58.7 µM) |
| COCc1c(C(=O)Nc2cccc(S(=O)(=O)N3CCCCC3)c2)oc2ccccc12 | 3.1 (≈ 7.23 µM) |
| CNC(=S)N(CCc1c(C)[nH]c2ccccc12)Cc1cccnc1 | > 50.8 |

| Structure (SMILES) | solubility kinetic [µg/mL] |
| --- | --- |
| CN(C1CCS(=O)(=O)C1)S(=O)(=O)c1ccccc1 (centres undefined) | > 43.4 |
| Cc1ccc(NC(=O)C2CCC(N3C(=O)C4CCCCC4C3=O)CC2)cc1 (centres undefined) | 52.2 (≈ 142 µM) |
| COc1cc(S(=O)(=O)NCCCn2ccnc2)ccc1F | 46.2 (≈ 147 µM) |
| O=C(NCCCn1ccnc1)c1ccc(Cl)cc1 | > 39.6 |
| O=C(COc1ccc([N+](=O)[O-])cc1)N1CCc2ccccc2C1 | 37.5 (≈ 120 µM) |
| CCCCOc1ccc(C(=O)NCC(=O)NC2CCCCC2)cc1 | 4.7 (≈ 14.1 µM) |
| CCOC(=O)c1sc(Nc2ccc(Br)cc2)nc1C | 1.2 (≈ 3.52 µM) |
| CCC1=C(C)CN(C(=O)NCCc2ccc(S(=O)(=O)NC(=O)NC3CCC(C)CC3)cc2)C1=O (centres undefined) | > 73.6 |
| COC(=O)c1cnc(Oc2c(Cl)cc(N)cc2Cl)cc1C(F)(F)F | 15.3 (≈ 40.1 µM) |
| CN1C2CCC1CC(NS(=O)(=O)c1cccc(C(F)(F)F)c1)C2 (centres undefined) | 48.3 (≈ 139 µM) |
| CSc1ncccc1C(=O)OCc1cccc([N+](=O)[O-])c1 | < 0.3 |
| CC(C)CN(CC(C)C)C(=S)Nc1ccc(Cl)cc1 | 2.2 (≈ 7.36 µM) |
| O=C(c1cncc(Br)c1)N1CCN(S(=O)(=O)c2ccc3ccccc3c2)CC1 | 6.5 (≈ 14.1 µM) |
| C/C(=N/NC(=O)c1ccncc1)c1ccccc1 | > 35.9 |
| Nc1[nH]c(=O)ncc1F | > 19.4 |
| CCN1CCN(S(=O)(=O)c2ccc(OC)c3ccccc23)CC1 | 29.2 (≈ 87.3 µM) |
| COCCN(C(=S)Nc1c(C)cccc1C)C(C)c1cccs1 (centres undefined) | 16.1 (≈ 46.2 µM) |
| Cc1cc(C=C2C(=O)NC(=O)NC2=O)c(C)n1-c1ccncc1 | > 46.5 |
| O=C(NCC1CCCO1)c1cccc(Oc2ccccc2)c1 (centres undefined) | 40.1 (≈ 135 µM) |
| CC(C)(C)S(=O)(=O)c1cnc(-c2ccccn2)nc1N | 34.1 (≈ 117 µM) |

| Structure (SMILES) | solubility kinetic [µg/mL] |
| --- | --- |
| COc1ccccc1NC(=O)Nc1c(C)nn(C)c1C | > 41.1 |
| CCOc1ccc(S(=O)(=O)Nc2ccc(C(=O)N3CCCC3)cc2)cc1 | 53.3 (≈ 142 µM) |
| Nc1cc(S(=O)(=O)Nc2ccc(Cl)cc2)ccc1N1CCOCC1 | > 55.2 |
| CN(CC(=O)Nc1c(Cl)cccc1Cl)C(=O)c1cccn1C | > 51 |
| Cc1cccc(C(=O)NCCNC(=O)c2cccnc2)c1 | 37.5 (≈ 132 µM) |
| O=C(Nc1ccc(O)cc1)c1ccccc1OCc1ccccc1 | < 0.7 |
| CC(C)(C)NS(=O)(=O)c1ccc(NC(=S)NC(=O)C2CC2)cc1 | 3 (≈ 8.44 µM) |
| O=C(CSc1nccn1-c1ccccc1)NCc1ccc(F)cc1 | 33.5 (≈ 98.1 µM) |
| CCC(COC(C)=O)Nc1nc2c([nH]1)c(=O)n(C)c(=O)n2C (centres undefined) | > 46.4 |
| CN(C(=S)NC(=O)c1ccccc1)C1CCCCC1 | > 41.5 |
| CC(C)NC(=S)Nc1ccc2[nH]c(=O)[nH]c2c1 | > 37.5 |
| COc1ccc(-c2cc(C#N)nc(Cl)n2)cc1 | 1.3 (≈ 5.29 µM) |
| Nc1nonc1OCCCCOc1nonc1N | 21.1 (≈ 82.4 µM) |
| O=C1CCN(C(=O)Cc2ccccc2[N+](=O)[O-])CC1 | > 39.3 |
| Cc1ccc(C(=O)NCCCN2CCOCC2)c(Cl)c1 | > 44.5 |
| COCCNC(=O)C1Cc2c(ccc3ccccc23)O1 (centres undefined) | > 40.7 |
| O=C(/C=C/c1ccco1)NC(=S)Nc1ccccc1 | 17.2 (≈ 63.2 µM) |
| Cc1cc(S(=O)(=O)N2CCN(C(=O)c3ccco3)CC2)ccc1F | > 52.9 |
| COc1ccc(NC(=O)c2ccc(NC(=O)CN3CCC(C(N)=O)CC3)cc2)cc1 | 8.1 (≈ 19.7 µM) |
